Source: patent US6114371A, “3-(cyclohexanoheteroarylidenyl)-2-indolinone protein tyrosine kinase inhibitors” (Sugen, Inc., priority 1998, dated 2000)

Experiments:
FLK-1 receptor = biological target: T1, FLK-1 receptor (Mus musculus, UniProt P35918); experiment: FLK-1 ELISA (kinase activity of the FLK-1 receptor in engineered cells); type: cell-based; settings: Table 2; read-out: FLK-1R IC50
T1 construct: expressed in transfected cells; host or cells: NIH3T3 C7#3 cells

src protein kinase = biological target: T2, src protein kinase (Gallus gallus, UniProt P00523); experiment: Biochemical src assay - ELISA; settings: Table 2
T2 construct: made in house; host or cells: Schizosaccharomyces pombe (yeast transformed with src, lysate)
Method: This assay is used to determine src protein kinase activity measuring phosphorylation of a biotinylated peptide as the readout.
h. […] S. Pombe strain SP200 (h-s leul.32 ura4 ade210) is grown as described and transformations are pRSP expression plasmids are done by the lithium acetate method (Superti-Furga, supra). Cells are grown in the presence of 1 μM thiamine to repress expression from the nmtl promoter or in the absence of thiamine to induce expression.
2. Add 0.08 mL Kinase Reaction Mixture per well (containing 10 μL of 10×Kinase Buffer and 10 μM (final concentration) biotin-[…] per well diluted in water.
(§1) 3. Add 10 μL of compound diluted in water containing 10% DMSO and pre-incubate for 15 minutes at room temperature.
4. Start kinase reaction by adding 10 μL/well of 0.05 mM ATP in water (5 μM ATP final).
(§2) The IC50 values were measured for several of the compounds of the invention.

lck protein kinase = biological target: T3, lck protein kinase (Homo sapiens, UniProt P06239); experiment: Biochemical lck assay - ELISA; settings: Table 2
T3 construct: made in house; host or cells: Schizosaccharomyces pombe strain SP200 (lysate)
Method: This assay is used to determine lck protein kinase activities measuring phosphorylation of GST-.zeta. as the readout.
b. Yeast transformed with lck. […] S. Pombe strain SP200 (h-s leul.32 ura4 ade210) is grown as described and transformations with pRSP expression plasmids are done by the lithium acetate method (Superti-Furga, supra). Cells are grown in the presence of 1 μM thiamine to induce expression.
2. Add 0.08 mL Kinase Reaction Mixture per well (containing 10 μl of 10×Kinase Buffer and 2 μg GST-.zeta. per well diluted with water).
as §1
4. Start kinase reaction by adding 10 μL/well of 0.1 mM ATP in water (10 μM ATP final).
The IC50 values were measured for one of the compounds of the invention.

FAK = FAK (Homo sapiens, UniProt Q05397); experiment: FAK assay; type: biochemical; settings: Table 2
HUV-EC-C cells [1] = experiment: HUV-EC-C assay, VEGF (3H-thymidine incorporation); type: cell-based, human; settings: Table 2, VEGF-stimulated HUV-EC-C, read-out: HUV-EC-C ATCC VEGF IC50
Method: (§3) The following protocol may also be used to measure a compound's activity against PDGF-R, FGF-R, VEGF, aFGF or Flk-1/KDR, all of which are naturally expressed by HUV-EC cells.
(§4) 1. […] After cells have detached from the flask, add an equal volume of assay medium and transfer to a 50 mL sterile centrifuge tube (Fisher Scientific; catalogue no. 05-539-6).
(§5) 1. Make up two-fold drug titrations in separate 96-well plates, generally 50 μM on down to 0 μM. Use the same assay medium as mentioned in day 0, step 2 above. Titrations are made by adding 90 μl/well of drug at 200 μM (4×the final well concentration) to the top well of a particular plate column. Since the stock drug concentration is usually 20 mM in DMSO, the 200 μM drug concentration contains 2% DMSO.
Therefore, diluent made up to 2% DMSO in assay medium (F12K+0.5% fetal bovine serum) is used as diluent for the drug titrations in order to dilute the drug but keep the DMSO concentration constant. Add this diluent to the remaining wells in the column at 60 μl/well. […]
(§6) 1. Thaw plates and harvest with a 96-well plate harvester (Tomtec Harvester 96®) onto filter mats (Wallac; catalogue no. 1205-401); read counts on a Wallac Betaplate™ liquid scintillation counter.
as §2

HUV-EC-C cells [2] = experiment: HUV-EC-C assay, aFGF (3H-thymidine incorporation); type: cell-based, human; settings: Table 2, aFGF-stimulated HUV-EC-C, read-out: HUV-EC-C ATCC aFGF IC50
Method: as §3, §4, §5
Therefore, diluent made up to 2% DMSO in assay medium (F12K+0.5% fetal bovine serum) is used as diluent for the drug titrations in order to dilute the drug but keep the DMSO concentration constant. Add this diluent to the remaining wells in the column at 60 μl/well. Take 60 μl from the 120 μl of 200 μM drug dilution in the top well of the column and mix with the 60 μl in the second well of the column. Take 60 μl from this well and mix with the 60 μl in the third well of the column, and so on until two-fold titrations are completed. When the next-to-the-last well is mixed, take 60 μl of the 120 μl in this well and discard it. Leave the last well with 60 μl of DMSO/media diluent as a non-drug-containing control. Make 9 columns of titrated drug, enough for triplicate wells each for 1) VEGF (obtained from Pepro Tech Inc., catalogue no. 100-200, 2) endothelial cell growth factor (ECGF) (also known as acidic fibroblast growth factor, or aFGF) (obtained from Boehringer Mannheim Biochemica, catalogue no. 1439 600); or, 3) human PDGF B/B (1276-956, Boehringer Mannheim, Germany) and assay media control. ECGF comes as a preparation with sodium heparin.
2. Transfer 50 μl/well of the drug dilutions to the 96-well assay plates containing the 0.8-1.0×10^4 cells/100 μl/well of the HUV-EC-C cells from day 0 and incubate ~2 h at 37° C., 5% CO2.
3. In triplicate, add 50 μl/well of […] VEGF, 20 ng/mL ECGF, or media control to each drug condition. As with the drugs, the growth factor concentrations are 4×the desired final concentration. Use the assay media from day 0 step 2 to make the concentrations of growth factors. Incubate approximately 24 hours at 37° C., 5% CO2. Each well will have 50 μl drug dilution, 50 μl growth factor or media, and 100 ul cells, =200 ul/well total. Thus the 4×concentrations of drugs and growth factors become 1× once everything has been added to the wells.
1. Add ^3 H-thymidine (Amersham; catalogue no. TRK-686) at 1 μCi/well (10 μl/well of 100 μCi/mL solution made up in RPMI media+10% heat-inactivated fetal bovine serum) and incubate ~24 h at 37° C., 5% CO2. RPMI is obtained from Gibco BRL, catalogue no. 11875-051.
as §6, §2

EGFr = EGFr (Homo sapiens, UniProt P00533); experiment: EGF receptor ELISA; type: cell-based; design: expressed in transfected cells; host or cells: NIH 3T3/C7; settings: Table 2; read-out: EGFR IC50
Method: EGF Receptor kinase activity in cells genetically engineered to express human EGF-R can be measured as described below:
1. Check seeded cells for contamination using an inverted microscope. Dilute drug stock (10 mg/mL in DMSO) 1:10 in DMEM medium, then transfer 5 μL to a test well for a final drug dilution of 1:200 and a final DMSO concentration of 1%. Control wells receive DMSO alone. Incubate in 5% CO2 at 37° C. for one hour.
5. After two hours incubation with drug, add prepared EGF ligand to cells, 10 μL per well, to yield a final concentration of 25 nM. Control wells receive DMEM alone. Incubate, shaking, at room temperature, for 5 minutes.
12. The maximal phosphotyrosine signal is determined by subtracting the value of the negative controls from the positive controls. The percent inhibition of phosphotyrosine content for extract-containing wells is then calculated, after subtraction of the negative controls.

PDGFr = PDGFr (Homo sapiens, UniProt P09619); experiment: PDGF-R ELISA; type: cell-based; design: cells (U1242, obtained from Joseph Schlessinger, NYU); endogenous in cells; host or cells: U1242; settings: read-out: PDGFR IC50; Table 2
PDGFr, sequence (P09619 33-1106): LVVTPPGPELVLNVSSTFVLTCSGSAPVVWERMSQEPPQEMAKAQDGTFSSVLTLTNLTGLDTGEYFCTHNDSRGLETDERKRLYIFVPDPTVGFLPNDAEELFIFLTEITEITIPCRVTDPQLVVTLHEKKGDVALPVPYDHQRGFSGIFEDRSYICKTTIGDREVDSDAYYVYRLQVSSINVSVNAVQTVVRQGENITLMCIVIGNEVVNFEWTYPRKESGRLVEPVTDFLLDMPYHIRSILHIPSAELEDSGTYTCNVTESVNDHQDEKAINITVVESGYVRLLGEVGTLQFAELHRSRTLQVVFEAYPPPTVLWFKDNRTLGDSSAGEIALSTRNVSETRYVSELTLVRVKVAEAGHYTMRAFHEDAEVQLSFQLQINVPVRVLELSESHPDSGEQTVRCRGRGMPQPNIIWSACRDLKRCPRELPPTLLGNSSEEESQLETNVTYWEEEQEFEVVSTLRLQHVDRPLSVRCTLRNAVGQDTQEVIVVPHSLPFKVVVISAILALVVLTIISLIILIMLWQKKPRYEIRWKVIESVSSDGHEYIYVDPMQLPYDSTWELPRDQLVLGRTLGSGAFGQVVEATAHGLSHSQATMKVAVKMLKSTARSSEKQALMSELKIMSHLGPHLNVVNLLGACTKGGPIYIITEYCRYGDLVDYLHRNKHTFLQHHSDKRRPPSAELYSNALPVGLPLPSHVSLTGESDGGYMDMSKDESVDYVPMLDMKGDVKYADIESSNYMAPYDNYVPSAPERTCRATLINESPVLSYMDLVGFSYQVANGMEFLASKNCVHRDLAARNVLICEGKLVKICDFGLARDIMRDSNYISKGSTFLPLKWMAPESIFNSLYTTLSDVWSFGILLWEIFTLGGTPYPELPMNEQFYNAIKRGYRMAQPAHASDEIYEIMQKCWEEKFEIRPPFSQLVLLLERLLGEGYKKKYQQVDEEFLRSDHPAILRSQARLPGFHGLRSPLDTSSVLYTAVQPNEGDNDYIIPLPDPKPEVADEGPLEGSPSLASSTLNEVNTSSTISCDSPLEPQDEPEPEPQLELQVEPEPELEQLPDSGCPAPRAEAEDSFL
Method: All cell culture media, glutamine, and fetal bovine serum can be purchased from Gibco Life Technologies (Grand Island, N.Y.) unless otherwise specified. […] All cell lines are routinely subcultured twice a week and are negative for mycoplasma as determined by the Mycotect method (Gibco).
For ELISA assays, cells (U1242, obtained from Joseph Schlessinger, NYU) are grown to 80-90% confluency in growth medium (MEM with 10% FBS, NEAA, 1 mM NaPyr and 2 mM GLN) and seeded in 96-well tissue culture plates in 0.5% serum at 25,000 to 30,000 cells per well. After overnight incubation in 0.5% serum-containing medium, cells are changed to serum-free medium and treated with test compound for 2 hr in a 5% CO2, 37° C. incubator. […] Lysates are incubated with shaking for 1 hour at room temperature. The plates are washed with TBST four times and then incubated with polyclonal anti-phosphotyrosine antibody at room temperature for 30 minutes. Excess anti-phosphotyrosine antibody is removed by rinsing the plate with TBST four times. Goat anti-rabbit IgG antibody is added to the ELISA plate for 30 min at room temperature followed by rinsing with TBST four more times. […] Absorbance at 410 nm with a reference wavelength of 630 nm is recorded about 15 to 30 min after ABTS addition.

T3 sequence (P06239 whole entry): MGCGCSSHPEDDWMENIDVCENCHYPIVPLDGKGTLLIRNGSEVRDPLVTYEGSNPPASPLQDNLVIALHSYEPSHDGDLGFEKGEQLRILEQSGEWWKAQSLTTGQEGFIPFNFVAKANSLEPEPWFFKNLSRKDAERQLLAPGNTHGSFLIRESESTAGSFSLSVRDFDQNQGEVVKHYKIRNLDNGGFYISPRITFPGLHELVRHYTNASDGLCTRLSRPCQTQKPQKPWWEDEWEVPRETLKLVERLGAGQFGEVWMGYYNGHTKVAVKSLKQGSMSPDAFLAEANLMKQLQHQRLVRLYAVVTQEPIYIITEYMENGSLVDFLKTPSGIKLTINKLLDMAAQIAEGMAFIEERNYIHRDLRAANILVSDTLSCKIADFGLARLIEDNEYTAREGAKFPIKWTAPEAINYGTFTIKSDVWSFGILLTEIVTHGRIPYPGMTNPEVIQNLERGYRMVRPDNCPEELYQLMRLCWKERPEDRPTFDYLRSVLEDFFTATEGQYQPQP
FAK, sequence (Q05397 whole entry, species assumed): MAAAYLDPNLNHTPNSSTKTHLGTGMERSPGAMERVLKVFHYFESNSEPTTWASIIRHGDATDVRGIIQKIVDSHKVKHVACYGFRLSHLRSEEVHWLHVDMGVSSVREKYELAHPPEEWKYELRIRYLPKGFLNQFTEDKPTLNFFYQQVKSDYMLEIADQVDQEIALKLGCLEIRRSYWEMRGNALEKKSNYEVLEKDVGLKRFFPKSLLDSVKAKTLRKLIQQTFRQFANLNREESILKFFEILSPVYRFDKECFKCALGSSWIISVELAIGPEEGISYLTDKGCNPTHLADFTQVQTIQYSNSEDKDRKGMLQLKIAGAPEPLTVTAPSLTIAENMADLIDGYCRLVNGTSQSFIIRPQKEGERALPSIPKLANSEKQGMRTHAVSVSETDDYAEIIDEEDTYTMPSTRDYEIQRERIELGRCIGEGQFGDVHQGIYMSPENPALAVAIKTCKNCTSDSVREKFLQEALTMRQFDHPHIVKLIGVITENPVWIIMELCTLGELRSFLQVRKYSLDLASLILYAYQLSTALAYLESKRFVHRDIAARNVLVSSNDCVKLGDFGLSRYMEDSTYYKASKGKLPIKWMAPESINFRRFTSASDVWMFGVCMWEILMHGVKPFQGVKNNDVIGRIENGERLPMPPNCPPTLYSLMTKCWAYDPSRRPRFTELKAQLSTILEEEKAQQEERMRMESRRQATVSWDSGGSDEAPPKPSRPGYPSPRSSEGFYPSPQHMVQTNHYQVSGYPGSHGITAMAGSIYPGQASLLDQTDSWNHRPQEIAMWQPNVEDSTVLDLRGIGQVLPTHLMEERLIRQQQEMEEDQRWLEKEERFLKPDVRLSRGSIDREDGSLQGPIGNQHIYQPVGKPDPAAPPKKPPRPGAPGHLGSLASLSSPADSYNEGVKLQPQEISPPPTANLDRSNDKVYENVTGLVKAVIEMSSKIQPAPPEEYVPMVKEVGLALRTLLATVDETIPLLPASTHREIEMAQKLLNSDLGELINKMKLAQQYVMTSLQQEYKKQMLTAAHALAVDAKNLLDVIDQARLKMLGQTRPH
EGFr, sequence (P00533 25-1210): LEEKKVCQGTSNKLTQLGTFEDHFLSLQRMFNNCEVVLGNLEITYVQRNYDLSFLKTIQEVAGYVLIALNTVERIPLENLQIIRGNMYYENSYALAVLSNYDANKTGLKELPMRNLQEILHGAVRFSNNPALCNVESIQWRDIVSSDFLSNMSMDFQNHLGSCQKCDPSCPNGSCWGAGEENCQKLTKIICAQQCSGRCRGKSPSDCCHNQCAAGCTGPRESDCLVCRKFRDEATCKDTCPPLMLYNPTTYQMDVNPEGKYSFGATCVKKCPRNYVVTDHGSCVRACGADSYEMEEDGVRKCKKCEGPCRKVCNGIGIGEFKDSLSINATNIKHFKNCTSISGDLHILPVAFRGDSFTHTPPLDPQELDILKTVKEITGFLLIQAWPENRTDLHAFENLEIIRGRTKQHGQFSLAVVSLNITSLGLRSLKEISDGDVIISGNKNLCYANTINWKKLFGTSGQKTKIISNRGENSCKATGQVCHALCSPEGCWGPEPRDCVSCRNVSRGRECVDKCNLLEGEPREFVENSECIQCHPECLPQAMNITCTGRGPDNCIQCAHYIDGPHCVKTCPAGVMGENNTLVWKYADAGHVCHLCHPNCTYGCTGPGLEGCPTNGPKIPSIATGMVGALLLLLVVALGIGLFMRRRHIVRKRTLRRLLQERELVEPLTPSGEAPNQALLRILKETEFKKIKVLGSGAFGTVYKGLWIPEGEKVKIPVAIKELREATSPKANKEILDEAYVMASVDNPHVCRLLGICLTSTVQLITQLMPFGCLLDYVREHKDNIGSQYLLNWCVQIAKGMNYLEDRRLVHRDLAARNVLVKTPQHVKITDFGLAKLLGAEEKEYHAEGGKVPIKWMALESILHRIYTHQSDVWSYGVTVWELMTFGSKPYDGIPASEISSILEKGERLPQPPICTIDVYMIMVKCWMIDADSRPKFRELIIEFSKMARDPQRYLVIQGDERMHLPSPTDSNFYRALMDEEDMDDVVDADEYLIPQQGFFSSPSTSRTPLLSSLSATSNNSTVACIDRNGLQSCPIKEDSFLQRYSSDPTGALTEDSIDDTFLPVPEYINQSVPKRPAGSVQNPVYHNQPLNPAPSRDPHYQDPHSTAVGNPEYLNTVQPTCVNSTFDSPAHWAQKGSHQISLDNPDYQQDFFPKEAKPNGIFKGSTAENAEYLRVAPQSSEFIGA

With NS(=O)(=O)c1ccc2c(c1)C(=Cc1cc3c([nH]1)CCCC3)C(=O)N2 the IC50 (FLK-1 receptor) was over 100000 nM, the IC50 (src protein kinase) was 800 nM and the IC50 (lck protein kinase) was 700 nM. It also gave an IC50 (FAK) of over 10000 nM, an IC50 (HUV-EC-C cells [1]; Homo sapiens) of 650 nM and an IC50 (HUV-EC-C cells [1]) of 1070 nM. It also gave an IC50 (HUV-EC-C cells [2]; Homo sapiens) of 2400 nM, an IC50 (HUV-EC-C cells [2]) of 3300 nM and an IC50 (EGFr) of over 100000 nM. The IC50 (PDGFr) was 1000 nM.
